# According to patent publication US11491120B2, “Pharmacological prophylactics against stress-induced affective disorders in females” (The Trustees of Columbia University in the City of New York, priority 2017, dated 2022):
# Entries after “also recorded” stand apart in the source; their conditions may differ.
# System: female 129S6/SvEv mice
# Test: Forced swim test (FST), immobility time, after stress
# Details: for Immobility in the FST (Day 1 and Day 2) vs saline: drug administered 1 hour after 3-shock CFC stressor; for Prophylactic efficacy against stress-induced depressive-like behavior: single injection 1 week before stressor
# [1] = Forced Swim Test Day 1, Dunnett test Sal vs. drug (30), 1 week prophylactic drug
# [2] = Ovariectomized cohort, 1 week prophylactic drug, Forced Swim Test Day 1, OVX mice, K (10), (2R,6R)-HNK (0.025)
# [3] = Ovariectomized cohort, 1 week prophylactic drug, Forced Swim Test Day 1, Sham mice, K (10), (2R,6R)-HNK (0.025)
# [4] = Ovariectomized cohort, 1 week prophylactic drug, Forced Swim Test Day 1, Sham vs OVX, same drug, K (10), (2R,6R)-HNK (0.025)
# [5] = Ovariectomized, E2/P4 replacement, 1 week prophylactic drug, Forced Swim Test Day 2, K (10), (2R,6R)-HNK (0.025), FIG. 5F
# [6] = Ovariectomized, same drug, hormone Vehicle vs. E2/P4 replacement, 1 week prophylactic drug, Forced Swim Test Day 2, K (10), (2R,6R)-HNK (0.025), FIG. 5F
# [7] = Sal vs. K (2.5), Fisher's PLSD, 3 day prophylactic drug/Forced Swim Test Day 1
# [8] = Sal vs. K (10), Fisher's PLSD, 1 week prophylactic drug, learned helplessness stress, Forced Swim Test Day 1
# [9] = Sal vs. K (10), Fisher's PLSD, 3 day prophylactic drug/Forced Swim Test Day 1
# [10] = Sal vs. K (10), Fisher's PLSD, Antidepressant drug/Forced Swim Test Day 2
# [11] = Sal vs. K (30), Fisher's PLSD, 3 day prophylactic drug/Forced Swim Test Day 1
# [12] = Sham-operated females, 1 week prophylactic drug, Forced Swim Test Day 2, K (10), (2R,6R)-HNK (0.025), FIG. 5C
# [13] = female mice, listed as (R, S)-ketamine
compound,measurement,setting,value
"CNC1(c2ccccc2Cl)CCCCC1=O (racemic) [(R,S)-ketamine, (RS)-2-(2-chlorophenyl)-2-(methylamino)cyclohexanone]","p, Immobility Time (min 1-6)",[1],0.3435
same,"p, Immobility Time (min 3)",[1],0.1617
same,"p, Immobility Time (min 4)",[1],0.9555
same,"p, Immobility Time (min 5)",[1],0.8239
same,"p, Immobility Time (min 6)",[1],0.8254
same,"p, Immobility Time Average (min 3-6)",[1],0.5081
same,"p, Immobility Time (min 1-6), OVX Sal vs OVX drug",[2],0.0920
same,"p, Immobility Time Average (min 3-6), Fisher's PLSD, OVX Sal vs OVX drug",[2],0.0570
same,"* (significance), Immobility Time (min 1-6), Sham Sal vs Sham drug",[3],* (* p<0.05)
same,"* (significance), Immobility Time Average (min 3-6), Fisher's PLSD, Sham Sal vs Sham drug",[3],* (* p<0.05)
same,"p, Immobility Time (min 1-6), Sham Sal vs Sham drug",[3],0.0140
same,"p, Immobility Time Average (min 3-6), Fisher's PLSD, Sham Sal vs Sham drug",[3],0.0114
same,"* (significance), Immobility Time Average (min 3-6), Fisher's PLSD, Sham drug vs OVX drug",[4],* (* p<0.05)
same,"p, Immobility Time (min 1-6), Sham drug vs OVX drug",[4],0.0533
same,"p, Immobility Time Average (min 3-6), Fisher's PLSD, Sham drug vs OVX drug",[4],0.0233
same,"p, Fisher's PLSD, Immobility Time Average (min 3-6), OVX Sal vs. OVX drug","Ovariectomized females, 1 week prophylactic drug, Forced Swim Test Day 2, K (10), (2R,6R)-HNK (0.025), FIG. 5C",0.7305
same,"p, Fisher's PLSD, Immobility Time Average (min 3-6), E2/P4 Sal vs. E2/P4 drug",[5],0.0196
same,"significance (*), Fisher's PLSD, Immobility Time Average (min 3-6), E2/P4 Sal vs. E2/P4 drug",[5],* (* p<0.05)
same,"p, Fisher's PLSD, Immobility Time Average (min 3-6), Vehicle Sal vs. Vehicle drug","Ovariectomized, hormone Vehicle, 1 week prophylactic drug, Forced Swim Test Day 2, K (10), (2R,6R)-HNK (0.025), FIG. 5F",0.9193
same,"p, Fisher's PLSD, Immobility Time Average (min 3-6), Vehicle drug vs. E2/P4 drug",[6],0.0089
same,"significance (*), Fisher's PLSD, Immobility Time Average (min 3-6), Vehicle drug vs. E2/P4 drug",[6],** (** p<0.01)
same,"p, Immobility Time (min 1)",[7],0.9401
same,"p, Immobility Time (min 2)",[7],0.6027
same,"p, Immobility Time (min 3)",[7],0.5146
same,"p, Immobility Time (min 4)",[7],0.9632
same,"p, Immobility Time (min 5)",[7],0.6706
same,"p, Immobility Time (min 6)",[7],0.7202
same,"p, Immobility Time Average (min 3-6)",[7],0.6884
same,"*, Immobility Time (min 1)",[8],*** (*** p<0.0001)
same,"*, Immobility Time (min 2)",[8],** (** p<0.01)
same,"*, Immobility Time (min 3)",[8],** (** p<0.01)
same,"*, Immobility Time (min 4)",[8],** (** p<0.01)
same,"*, Immobility Time (min 5)",[8],** (** p<0.01)
same,"*, Immobility Time (min 6)",[8],*** (*** p<0.0001)
same,"*, Immobility Time Average (min 1-6)",[8],*** (*** p<0.0001)
same,"p, Immobility Time (min 1)",[8],<0.0001
same,"p, Immobility Time (min 2)",[8],0.0002
same,"p, Immobility Time (min 3)",[8],0.0002
same,"p, Immobility Time (min 4)",[8],0.0090
same,"p, Immobility Time (min 5)",[8],0.0016
same,"p, Immobility Time (min 6)",[8],0.0001
same,"p, Immobility Time Average (min 1-6)",[8],<0.0001
same,"p, Immobility Time (min 1)",[9],0.9371
same,"p, Immobility Time (min 2)",[9],0.5853
same,"p, Immobility Time (min 3)",[9],0.7490
same,"p, Immobility Time (min 4)",[9],0.6033
same,"p, Immobility Time (min 5)",[9],0.9482
same,"p, Immobility Time (min 6)",[9],0.9756
same,"p, Immobility Time Average (min 3-6)",[9],0.9690
same,"*, Immobility Time (min 1)",[10],* (* p<0.05)
same,"p, Immobility Time (min 1)",[10],0.0187
same,"p, Immobility Time (min 1)",[11],0.6395
same,"p, Immobility Time (min 2)",[11],0.9313
same,"p, Immobility Time (min 3)",[11],0.7755
same,"p, Immobility Time (min 4)",[11],0.5198
same,"p, Immobility Time (min 5)",[11],0.9023
same,"p, Immobility Time (min 6)",[11],0.5995
same,"p, Immobility Time Average (min 3-6)",[11],0.8325
same,"p, Fisher's PLSD, Immobility Time Average (min 3-6), Sham drug vs. OVX drug","Same drug, Sham vs. ovariectomized, 1 week prophylactic drug, Forced Swim Test Day 2, K (10), (2R,6R)-HNK (0.025), FIG. 5C",0.2375
same,"p, Fisher's PLSD, Immobility Time Average (min 3-6), Sham Sal vs. Sham drug",[12],0.0405
same,"significance (*), Fisher's PLSD, Immobility Time Average (min 3-6), Sham Sal vs. Sham drug",[12],* (* p<0.05)
same,Immobility in the FST (Day 1 and Day 2) vs saline,female mice,"Neither (R,S)-ketamine nor (2R,6R)-HNK significantly affected immobility time"
same,Immobility in the FST (Day 1 and Day 2) vs saline,[13],did not reduce immobility levels
same,Prophylactically effective dose in females,"female mice, 1 week before stressor",10 mg/kg
same,Immobility in the FST vs saline,"ovariectomized mice with cyclic E2 and P4 replacement, drug 1 week before CFC, listed as (R, S)-ketamine",significantly less immobile compared to control saline mice; also recorded: significantly reduced immobility
same,Prophylactic efficacy against stress-induced depressive-like behavior,female mice,significantly reduced stress-induced depressive-like behavior; also recorded: significantly decreased stress-induced depressive-like behavior; also recorded: effective prophylactics against a variety of stressors; also recorded: protect against stress-induced depressive-like behavior
same,Prophylactic efficacy against stress-induced depressive-like behavior,[13],prophylactic against stress-induced depressive-like behavior
